Here are results for six compounds from PMC6994260 (Nature chemistry, 2019).

Test [1] addresses T1, signal peptidase IB (SpsB) (Staphylococcus aureus, UniProt Q5HHB9).
T1 sequence (Q5HHB9 1-191): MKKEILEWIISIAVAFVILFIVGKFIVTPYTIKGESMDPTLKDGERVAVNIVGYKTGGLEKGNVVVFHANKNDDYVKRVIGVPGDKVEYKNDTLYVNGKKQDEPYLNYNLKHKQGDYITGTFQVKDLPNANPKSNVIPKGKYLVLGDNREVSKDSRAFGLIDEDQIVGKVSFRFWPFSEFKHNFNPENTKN
In words: FRET-peptide cleavage by endogenous SpsB in S. aureus membranes. The test is classed as biochemical. The conditions noted are these: activator; 50 uM compound, 0.2 mg/mL total membrane protein.

Test [2] has as its target T2, demethylmenaquinone methyltransferase (MenG) (Staphylococcus aureus, UniProt P67062).
T2 sequence (P67062 1-241): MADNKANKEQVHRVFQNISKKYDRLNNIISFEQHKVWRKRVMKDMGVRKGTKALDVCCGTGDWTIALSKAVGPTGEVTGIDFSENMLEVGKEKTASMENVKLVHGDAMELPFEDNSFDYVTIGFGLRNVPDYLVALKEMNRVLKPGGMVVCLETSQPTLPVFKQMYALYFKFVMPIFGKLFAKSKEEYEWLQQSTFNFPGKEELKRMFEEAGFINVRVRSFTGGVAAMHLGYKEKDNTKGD
In words: LC-MS of menaquinone-2 formed in lysate. The class given is biochemical. The conditions noted are these: S-adenosyl-L-methionine as methyl donor, 80 min.

Test [3] addresses T2, demethylmenaquinone methyltransferase (MenG). In words: MenG methylation assay in lysate. The class given is biochemical. The conditions noted are these: inhibitor; SAM and DMK-2 as substrates, 80 min.
Test [4] has the same target. To be noted: labelled compound; DMK-2 as acceptor, 80 min.

As to `O=C(Nc1ccc2c(c1)OCO2)Nc1ccc(Cl)c(C(F)(F)F)c1` [1-159], the “SpsB activity (normalized) at 50 μM” value in test [1] is 1.40 ± 0.01 fold of DMSO control. Same read-out and setting: under `O=C(Nc1ccc(Cl)c(C(F)(F)F)c1)Nc1cccc2c1OC(F)(F)O2` [1-164] stands 1.42 ± 0.08 fold of DMSO control. As for `CC(C)=CCC/C(C)=C/CC1=CC(=O)c2ccccc2C1=O` [DMK-2, demethylmenaquinone-2], the “LC-MS of menaquinone-2 formed in lysate” value in test [2] is “methylation of non-naturally occurring demethylmenaquinone-2 by lysates of MenG-overexpressing and wild type S. aureus”.

In the case of `O=C(Nc1ccc2c(c1)OC(F)(F)O2)Nc1ccc(Cl)c(C(F)(F)F)c1` [PK150], the “SpsB activity (normalized) at 50 μM” value in test [1] is on record as 2.54 ± 0.39 fold of DMSO control. For the same compound, the “% MenG activity of DMSO control” value in test [3] is “Menaquinone-2 synthesis was enhanced in MenG-overexpressing cells and again significantly inhibited by PK150”. On to `C[S+](CC[C@H](N)C(=O)O)C[C@H]1O[C@@H](n2cnc3c(N)ncnc32)[C@H](O)[C@@H]1O` (stereo partly drawn) [SAM, S-adenosyl-L-methionine], for which, in test [4], the “[3H]methyl transfer to DMK-2, liquid scintillation counting” value was “radiolabelled methyl group of cofactor S-adenosyl-L-methionine”. For the compound `CNC(=O)c1cc(Oc2ccc(NC(=O)Nc3ccc(Cl)c(C(F)(F)F)c3)cc2)ccn1` [SFN, sorafenib], in test [1], the “SpsB activity (normalized) at 50 μM” value is 1.64 ± 0.12 fold of DMSO control. Also, the “% MenG activity of DMSO control” value in test [3] is “SFN caused a weaker inhibition in these assays”.
